In patent publication US20210292741A1, “COMBINATION THERAPEUTICS USING TUMOR TREATING FIELDS (TTFIELDS)” (THE BOARD OF REGENTS OF THE UNIVERSITY OF TEXAS SYSTEM, priority 2020, published 2021):

Tested on: H1299, A549, H157, and H4006 cells
Assay: clonogenic survival assay, TTFields combined with E2F and CDK 4/6 inhibitors
Assay type: cell-based, Human
Settings: single inhibitor plus TTFields, Highest Single Agent approach
Protocol: FIGS. 6A-6B provide the results of exemplary clonogenic survival assays in four lung cancer cells lines—H1299, A549, H157, and H4006 cells—under various conditions testing combinations of TTFields with agents that dysregulate E2F signaling or CDK4/6 signaling at 24, 48, and 72 hours. […] Cell survival after increased exposure to TTFields alone, or in combination with a E2F inhibitor, a CDK 4/6 inhibitor or to a combination of E2F inhibitor and CDK 4/6 inhibitor is shown.
Human NSCLC cell lines (H157, H4006, A549, and H1299) were purchased from American Tissue Culture Collection. All these cell lines were grown in RPMI medium supplemented with 10% (v/v) fetal bovine serum (Atlanta Biologicals, Flowery Branch, Ga., USA) and penicillin/streptavidin (final concentration 50 μg/ml; Sigma-Aldrich, St. Louis, Mo., U29SA). All cells were grown at 37° C. in a humidified incubator constantly supplied with 5% CO2.
The inovitro system (NovoCure Ltd, Haifa, Israel) was used to generate TTFields that use two pairs of electrodes printed perpendicularly on the outer walls of a Petri dish composed of high dielectric constant ceramic (lead magnesium niobate-lead titanite (PMN-PT)). […] The temperature was measured by 2 thermistors (Omega Engineering, Stamford, Conn., USA) attached to the ceramic walls. […]

## CCOc1ccc(C(Nc2ccccn2)c2ccc3ccc(C)nc3c2O)cc1C (stereo not shown) [HLM006474]
  cell killing in combination with TTFields as compared to TTFields alone: enhanced cell killing synergistically
